Measured values reported in patent US7629468B2 (Janssen Pharmaceutica NV, priority 2003, dated 2009).

Key:
[1] = tested on: rats with a Bennett ligation; experiment: Cold allodynia test in rats with a Bennett ligation (cold plate testing); type: in vivo, rat; conditions: male SD rats, IP, dose of 2.5 mg/kg bodyweight, retested after 60 minutes, cold plate 0.0 °C
Description: Cold Allodynia Test in Rats with a Bennett Ligation
Male SD rats, weighing 240-280 g at the time of surgery were used.
For surgery, the animals were anaesthetised with Thalamonal (1 ml; subcutane) and sodium pentobarbital (40 mg/kg; intraperitoneal (IP)). The common sciatic nerve of the left hindpaw was exposed at the level of the middle of the thigh by blunt dissection through the biceps femoris. Proximal to the sciatic's trifurcation, about 7 mm of nerve was freed and four loose ligatures with 4.0 chromic gut were placed around the sciatic nerve. Great care was taken to tie the ligatures such that the diameter of the nerve was barely constricted. After surgery, the animals received 1.25 mg/kg naloxone IP.
Cold plate testing was performed on a metal plate of 30×30 cm with transparent acrylic walls around it. The cold plate was cooled to 0.0 (±0.5)° C. using a Julabo F25 cooler. For testing, the animal was placed on the cold plate and the duration of lifting of both the left and the right hindpaw was measured during 5 minutes. The difference in lifting time between the ligated and non-ligated paw was calculated.
At least one week after the operation, animals were placed on the cold plate test and a pre-drug measurement was taken. […] The results obtained during the post drug test were expressed as a percentage of those of the predrug test. […]

[2] = biological target: T1, cloned rat mGluR1 receptor (Rattus norvegicus, UniProt P23385); experiment: Signal transduction at the cloned rat mGluR1 receptor in CHO cells (glutamate-induced intracellular Ca2+ rise, FLIPR); type: cell-based
T1 construct: expressed in transfected cells; host or cells: CHO cells
T1 sequence (P23385 19-1199): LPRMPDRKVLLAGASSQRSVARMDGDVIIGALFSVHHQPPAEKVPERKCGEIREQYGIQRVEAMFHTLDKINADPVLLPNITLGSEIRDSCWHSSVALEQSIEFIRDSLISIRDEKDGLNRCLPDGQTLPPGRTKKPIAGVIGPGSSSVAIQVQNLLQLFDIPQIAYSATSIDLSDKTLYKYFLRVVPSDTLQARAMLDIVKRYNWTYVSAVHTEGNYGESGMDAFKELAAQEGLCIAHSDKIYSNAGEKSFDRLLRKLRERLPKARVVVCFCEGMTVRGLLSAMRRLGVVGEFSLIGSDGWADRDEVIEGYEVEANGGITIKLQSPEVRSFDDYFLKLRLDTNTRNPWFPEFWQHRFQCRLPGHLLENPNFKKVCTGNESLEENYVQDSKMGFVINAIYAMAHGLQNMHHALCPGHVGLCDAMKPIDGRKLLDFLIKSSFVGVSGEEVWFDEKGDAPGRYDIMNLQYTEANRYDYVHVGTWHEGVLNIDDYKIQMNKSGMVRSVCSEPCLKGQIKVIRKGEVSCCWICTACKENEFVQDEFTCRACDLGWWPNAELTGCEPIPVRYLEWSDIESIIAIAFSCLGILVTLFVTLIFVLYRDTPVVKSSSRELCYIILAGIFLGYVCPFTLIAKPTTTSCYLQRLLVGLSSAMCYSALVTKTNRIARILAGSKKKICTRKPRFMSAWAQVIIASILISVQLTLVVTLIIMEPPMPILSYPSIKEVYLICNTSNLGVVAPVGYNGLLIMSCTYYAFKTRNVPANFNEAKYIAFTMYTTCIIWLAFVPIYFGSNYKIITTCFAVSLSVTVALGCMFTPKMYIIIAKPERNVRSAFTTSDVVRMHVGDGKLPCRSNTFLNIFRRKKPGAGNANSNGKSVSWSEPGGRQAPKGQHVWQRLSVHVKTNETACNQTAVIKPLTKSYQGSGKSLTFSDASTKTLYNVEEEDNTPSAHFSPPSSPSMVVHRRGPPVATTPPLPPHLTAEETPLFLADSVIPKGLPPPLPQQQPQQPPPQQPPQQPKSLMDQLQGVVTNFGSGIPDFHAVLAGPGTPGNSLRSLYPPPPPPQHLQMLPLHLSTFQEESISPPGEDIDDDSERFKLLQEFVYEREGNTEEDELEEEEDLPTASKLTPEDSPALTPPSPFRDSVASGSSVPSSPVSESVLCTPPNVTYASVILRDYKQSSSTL
Description: Pharmacological Example Signal Transduction at the Cloned Rat mGluR1 Receptor in CHO Cells
CHO cells expressing the mGluR1 receptor were plated in precoated black 96-well plates. […] The cells were loaded with Fluo-3 AM, plates were incubated for 1 hour at room temperature in the dark, cells were washed and the present compounds were added onto the cells for 20 minutes. […] Relative fluorescence units were recorded and average data graphs of quadruple wells were obtained.

SMILES | melting point | IC50 [2] | other results
CCc1cc2cc(C(=O)C3CCC(OC)CC3)ccc2nc1C#CCO (centres unmarked) [Compound 18] | 113 °C | – | –
CCc1cc2cc(C(=O)C3CCC(OC)CC3)ccc2nc1I (centres unmarked) [Compound 21] | 110 °C | – | –
CCc1cc2cc(C(=O)C3CCC(OC)CC3)ccc2nc1C#N (centres unmarked) [Compound 22] | 138 °C | – | –
CCc1cc2cc(C(=O)C3CCC(OC)CC3)ccc2nc1C (centres unmarked) [Compound 27] | – | – | all or none criterion on difference in lifting time between ligated and non-ligated paw, post-drug as percentage of pre-drug [1]: antagonism
CCc1cc2cc(C(=O)Cc3ccsc3)ccc2nc1C [Compound 299] | – | 23.4 nM | –
CCc1cc2cc(C(=O)[C@H]3CC[C@@H](OC)CC3)ccc2nc1COC(C)=O [Compound 348] | – | 89.1 nM | –
CO[C@H]1CC[C@@H](C(=O)c2ccc3nc4c(cc3c2)CCCCC4)CC1 [Compound 426] | – | 77.6 nM | –
O=C(Cc1ccsc1)c1ccc2nc3c(cc2c1)CCCS3 [Compound 464] | – | 26.9 nM | –
